Measured values as given in EP0719251B1, “BICYCLO (2.2.2) OCTANE DERIVATIVES CHOLECYSTOKININ AND/OR GASTRIN ANTAGONISTS” (JAMES BLACK FOUNDATION LIMITED, priority 1993, dated 1995).

Assays:
CCKB receptor = target: T1, CCKB receptor (Mus musculus, UniProt P56481); experiment: radioligand binding assay at the CCKB receptor in mouse cortical membranes; settings: [125I]-CCK8S 200pM, 150 min at 21 ± 3°C; for Ki: read-out: CCKB pKi (converted)
T1 construct: The whole brains from male mice (CD1 22-25g; Charles River) were removed; from tissue; host or cells: cerebral cortex membranes of male CD1 mice
T1 sequence (P56481 1-453): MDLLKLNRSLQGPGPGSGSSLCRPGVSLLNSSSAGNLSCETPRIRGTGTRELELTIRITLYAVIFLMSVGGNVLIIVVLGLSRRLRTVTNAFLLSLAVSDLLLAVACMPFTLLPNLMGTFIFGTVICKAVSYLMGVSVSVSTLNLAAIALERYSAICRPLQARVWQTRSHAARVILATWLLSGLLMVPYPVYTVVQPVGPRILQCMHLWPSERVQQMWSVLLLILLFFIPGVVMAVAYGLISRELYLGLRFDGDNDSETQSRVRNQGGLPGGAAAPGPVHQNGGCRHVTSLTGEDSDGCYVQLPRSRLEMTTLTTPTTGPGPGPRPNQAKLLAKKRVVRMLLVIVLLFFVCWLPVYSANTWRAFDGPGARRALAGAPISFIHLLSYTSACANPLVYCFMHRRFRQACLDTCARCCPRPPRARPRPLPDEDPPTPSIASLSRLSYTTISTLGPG
Outline: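 Radioligand binding was quantified by gamma counting after filtration through GF/B filters and cold 50 mM Tris-HCl (pH 7.4) washes. Tissue source was male CD1 mouse cortex, homogenised and twice centrifuged, then resuspended at 2 mg.ml^-1 original wet weight in pH 7.2 HEPES buffer containing bacitracin.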

CCKA = target: T2, CCKA (Cavia porcellus, UniProt Q63931); experiment: CCKA binding assay in guinea-pig pancreas membranes; settings: [125I]-CCK8(S) 200pM; for Ki: containing 0.375 µM PD134,308, read-out: CCKA pKi (converted); for CCKA pKi: containing 0.375 µM PD134,308
T2 construct: The pancreatata were removed from male guinea-pigs (200-300g; Dunkin Hartley); from tissue; host or cells: pancreas membranes of male Dunkin Hartley guinea-pigs
T2 sequence (Q63931 1-430): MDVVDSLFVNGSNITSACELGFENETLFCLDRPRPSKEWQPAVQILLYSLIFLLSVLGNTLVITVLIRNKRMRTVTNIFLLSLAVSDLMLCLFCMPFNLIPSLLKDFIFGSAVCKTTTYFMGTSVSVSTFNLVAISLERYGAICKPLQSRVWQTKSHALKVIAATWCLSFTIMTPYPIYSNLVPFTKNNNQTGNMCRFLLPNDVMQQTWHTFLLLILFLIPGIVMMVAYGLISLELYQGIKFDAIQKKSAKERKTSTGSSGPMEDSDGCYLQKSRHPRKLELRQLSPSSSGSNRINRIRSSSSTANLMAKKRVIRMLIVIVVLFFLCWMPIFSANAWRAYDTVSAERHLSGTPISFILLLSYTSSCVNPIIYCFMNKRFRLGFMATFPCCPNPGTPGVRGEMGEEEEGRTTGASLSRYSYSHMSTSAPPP
Outline: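 Competition binding of [125I]-CCK8(S) (200 pM in the added solution) to male guinea-pig pancreas membranes (1 mg/ml wet weight) containing 0.375 µM PD134,308, in HEPES buffer pH 7.2. Incubated 150 min at 21 ± 3°, then filtered. Bound radioactivity gamma-counted; non-specific binding defined with 100nM L-364,718.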

gastrin = target: T3, gastrin (Rattus norvegicus, UniProt P30553); experiment: gastrin antagonist activity in an immature rat stomach assay; settings: isolated immature rat stomach, cumulative pentagastrin dose-response curves, acid secretion; for Kb: read-out: Gastrin pKB (converted); for Gastrin pKB: 60 min
T3 construct: The stomach was excised and flushed with ca. 1 ml of unbuffered physiological saline solution; from tissue; host or cells: isolated whole stomach of immature rats (33-50 g, ca. 21 days old)
T3 sequence (P30553 1-452): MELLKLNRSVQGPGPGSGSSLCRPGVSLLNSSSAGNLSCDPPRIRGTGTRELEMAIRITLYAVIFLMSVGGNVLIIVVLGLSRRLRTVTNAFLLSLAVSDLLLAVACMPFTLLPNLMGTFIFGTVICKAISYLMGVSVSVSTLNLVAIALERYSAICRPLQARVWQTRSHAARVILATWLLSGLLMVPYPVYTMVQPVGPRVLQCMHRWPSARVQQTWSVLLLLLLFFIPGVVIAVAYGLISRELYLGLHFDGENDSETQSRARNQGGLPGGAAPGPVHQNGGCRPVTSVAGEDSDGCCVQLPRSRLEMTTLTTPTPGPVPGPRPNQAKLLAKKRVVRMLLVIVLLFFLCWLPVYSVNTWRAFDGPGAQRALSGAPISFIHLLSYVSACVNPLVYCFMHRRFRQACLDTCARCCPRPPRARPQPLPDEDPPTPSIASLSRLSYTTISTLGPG
Outline: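 Isolated stomachs from immature rats (33-50 g, ca. 21 days) perfused at 1 ml min^-1 with O2-gassed unbuffered saline, perfusate pH monitored by electrode. After 120 min stabilisation, compounds added to serosal bath; cumulative pentagastrin dose-response curves begun 60 min later.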

Row | Structure (SMILES) | Ki (CCKB receptor) | Ki (CCKA) | Kb (gastrin) | CCKB pKi (CCKB receptor) | CCKA pKi (CCKA) | Gastrin pKB (gastrin)
1 | O=C(O)c1ccc(NC(=O)[C@H](Cc2ccccc2)NC(=O)C2C3c4ccccc4C(c4ccccc43)C2C(=O)NCC23CC4CC(CC(C4)C2)C3)cc1C(=O)O (stereo partly drawn) [Example 43, cis-7-(1S-(3,4-dicarboxyphenylaminocarbonyl)-2-phenylethylaminocarbonyl)-8-(1-adamantanemethylaminocarbonyl)-2,3,5,6-dibenzobicyclo [2.2.2]octane] | 100 nM | 1260 nM | 794 nM |  |  | 
2 | O=C(O)c1cc(NC(=O)[C@H](Cc2cccc(F)c2)NC(=O)C2C3c4ccccc4C(c4ccccc43)C2C(=O)NCC23CC4CC(CC(C4)C2)C3)cc(C(=O)O)c1 (single isomer, unassigned) [Example 19, cis-7-(1S-(3,5-dicarboxyphenylaminocarbonyl)-2-(3-fluorophenyl)ethylaminocarbonyl)-8-(1-adamantanemethylaminocarbonyl) -2,3,5,6-dibenzobicyclo[2.2.2]octane] | 10 nM | 398 nM | 25.1 nM |  |  | 
3 | O=C(O)c1cc(NC(=O)[C@H](Cc2ccc3ccccc3c2)NC(=O)C2C3c4ccccc4C(c4ccccc43)C2C(=O)NCC23CC4CC(CC(C4)C2)C3)cc(C(=O)O)c1 (single isomer, unassigned) [Example 15, cis-7-(1S-(3,5-dicarboxyphenylaminocarbonyl)-2-(2-naphthyl)ethylaminocarbonyl)-8-(1-adamantanemethylaminocarbonyl) -2,3,5,6-dibenzobicyclo[2.2.2]octane] |  |  |  | 6.7 | 7.0 | 5.8
4 | O=C(O)c1cc(NC(=O)[C@H](CCc2ccccc2)NC(=O)C2C3c4ccccc4C(c4ccccc43)C2C(=O)NCC23CC4CC(CC(C4)C2)C3)cc(C(=O)O)c1 (stereo partly drawn) [Example 36, cis-7-(1S-(3,5-dicarboxyphenylaminocarbonyl) -3-phenylpropylaminocarbonyl) -8-(1-adamantanemethyl-aminocarbonyl) -2,3,5,6-dibenzobicyclo[2.2.2]octane] | 63.1 nM | 2000 nM | 31.6 nM |  |  | 
5 | O=C(O)c1cc(NC(=O)[C@H](Cc2ccccc2)NC(=O)C2C3c4ccccc4C(c4ccccc43)C2C(=O)NCC2CCCCC2)cc(C(=O)O)c1 (single isomer, unassigned) [Example 30, cis-7-(1S-(3,5-dicarboxyphenylaminocarbonyl)-2-phenylethylaminocarbonyl)-8-(1-cyclohexanemethylaminocarbonyl)-2,3,5,6-dibenzobicyclo [2.2.2] octane] | 20 nM | 3980 nM | 50.1 nM |  |  | 
6 | COc1ccc(C[C@H](NC(=O)C2C3c4ccccc4C(c4ccccc43)C2C(=O)NCC23CC4CC(CC(C4)C2)C3)C(=O)Nc2cc(C(=O)O)cc(C(=O)O)c2)cc1 (single isomer, unassigned) [Example 13, cis-7-(1S-(3,5-dicarboxyphenylaminocarbonyl) -2-(4-methoxyphenyl)ethylaminocarbonyl)-8-(1-adamantanemethylaminocarbonyl) -2,3,5,6-dibenzobicyclo[2.2.2]octane] | 501 nM | 2000 nM | 316 nM |  |  | 
7 | O=C(O)c1cc(NC(=O)[C@H](Cc2ccccc2)NC(=O)C2C3c4ccccc4C(c4ccccc43)C2C(=O)NCc2ccc3ccccc3c2)cc(C(=O)O)c1 (single isomer, unassigned) [Example 63, cis-7-(1S-(3,5-dicarboxyphenylaminocarbonyl) -2-phenylethylaminocarbonyl)-8-(2-naphthalenemethylaminocarbonyl) -2,3,5,6-dibenzobicyclo[2.2.2]octane] | 2.51 nM | 1580 nM | 39.8 nM |  |  | 
8 | O=C(O)c1cccc(NC(=O)[C@H](Cc2ccccc2)NC(=O)C2C3c4ccccc4C(c4ccccc43)C2C(=O)NCC23CC4CC(CC(C4)C2)C3)c1 (single isomer, unassigned) [Example 41, cis-7-(1S-(3-carboxyphenylaminocarbonyl)-2-phenylethylaminocarbonyl)-8-(1-adamantanemethylaminocarbonyl)-2,3,5,6-dibenzobicyclo[2.2.2]octane] | 158 nM |  |  |  | 6.0 | 5.7
9 | O=C(O)c1cc(NC(=O)[C@@H](CCc2ccccc2)NC(=O)C2C3c4ccccc4C(c4ccccc43)C2C(=O)NCC23CC4CC(CC(C4)C2)C3)cc(C(=O)O)c1 (stereo partly drawn) [Example 37, cis-7-(1R-(3,5-dicarboxyphenylaminocarbonyl) -3-phenylpropylaminocarbonyl)-8-(1-adamintanemethylaminocarbonyl)-2,3,5,6-dibenzobicyclo[2.2.2] octane] | 100 nM | 2000 nM | 63.1 nM |  |  | 
10 | O=C(O)c1cc(NC(=O)[C@H](Cc2ccccc2)NC(=O)C2C3c4ccccc4C(c4ccccc43)C2C(=O)NCc2cccc3ccccc23)cc(C(=O)O)c1 (single isomer, unassigned) [Example 32, cis-7-(1S-(3,5-dicarboxyphenylaminocarbonyl)-2-phenylethylaminocarbonyl)-8-(1-naphthalenemethylaminocarbonyl) -2,3,5,6-dibenzobicyclo [2.2.2]octane] | 10 nM | 501 nM | 25.1 nM |  |  | 
11 | O=C(O)c1cc(NC(=O)[C@H](Cc2ccccc2)NC(=O)C2C3c4ccccc4C(c4ccccc43)C2C(=O)NCc2ccc(Cl)c(Cl)c2)cc(C(=O)O)c1 (single isomer, unassigned) [Example 35, cis-7-(1S-(3,5-dicarboxyphenylaminocarbonyl)-2-phenylethylaminocarbonyl) -8-(3,4-dichlorophenyl-methylaminocarbonyl) -2,3,5,6-dibenzobicyclo[2.2.2]octane] | 158 nM | 1260 nM | 1000 nM |  |  | 
12 | O=C(O)c1cc(NC(=O)[C@H](Cc2ccccc2)NC(=O)C2C3c4ccccc4C(c4ccccc43)C2C(=O)NCC2CCCCC2)cc(C(=O)O)c1 (single isomer, unassigned) [Example 31, cis-7-(1S-(3,5-dicarboxyphenylaminocarbonyl) -2-phenylethylaminocarbonyl)-8-(cyclohexanemethylaminocarbonyl) -2,3,5,6-dibenzobicyclo[2.2.2]octane] | 200 nM | 1260 nM | 251 nM |  |  | 
13 | O=C(O)c1cc(CNC(=O)[C@H](Cc2ccccc2)NC(=O)C2C3c4ccccc4C(c4ccccc43)C2C(=O)NCC23CC4CC(CC(C4)C2)C3)cc(C(=O)O)c1 (single isomer, unassigned) [Example 61, cis-7-(1S-(3,5-dicarboxyphenylmethylaminocarbonyl) -2-phenylethylaminocarbonyl) -8-(1-adamantanemethylaminocarbonyl)-2,3,5,6-dibenzobicyclo [2.2.2] octane] | 31.6 nM | 2510 nM | 39.8 nM |  |  | 
